Assay results from patent publication US10219516B2, “Molecules having pesticidal utility, and intermediates, compositions, and processes, related thereto” (priority 2015, dated 2019).

Tests used:
Assay type in all cases: in vivo
[1] = tested on: Yellow Fever Mosquito (Aedes aegypti, AEDSAE); test: Bioassay on Yellow Fever Mosquito (YFM), 96-well plate larval assay; settings: Species YFM (Yellow Fever Mosquito)
Method in brief: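 Aedes aegypti larvae (about 1 day old) in liver-powder water were added to plates dispensed from DMSO master plates (4000 ppm stock) diluted with 90:10 water/acetone; six replicate plates per master. Lidded plates were held at room temperature for 3 days, then each well was scored for mortality.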

[2] = tested on: Beet Armyworm (Spodoptera exigua, LAPHEG); test: Bioassay on Beet Armyworm (BAW), 128-well diet tray assay; settings: Species BAW (Beet Armyworm), read-out: BAW (Biological Results, rating)
Method in brief: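 Diet tray, 8 wells/compound; 50 μg/cm^2 applied to diet surface (90:10 acetone-water), dried. 1–5 L2 larvae/well; 25° C., 14:10 L:D, 5–7 d. Read-out: % mortality, mean of 8 wells.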

[3] = tested on: Cabbage Looper (Trichoplusia ni, TRIPNI); test: Bioassay on Cabbage Looper (CL), 128-well diet tray assay; settings: Trichoplusia ni; Species CL (Cabbage Looper); read-out: CL (Biological Results, rating)
Method in brief: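 Diet-incorporation-free surface assay: 50 μg/cm^2 compound in acetone-water (90:10), dried on diet; 1–5 2nd-instar larvae/well; 8 wells; vented cover; 25° C., 14:10 L:D, 5–7 d; % mortality averaged over wells.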

[4] = tested on: Green Peach Aphid (Myzus persicae, MYZUPE); test: Bioassay on Green Peach Aphid (GPA), foliar spray on infested cabbage seedlings; settings: foliar, 72 h, Species GPA (Green Peach Aphid), read-out: GPA (Biological Results, rating)
Description: Certain molecules disclosed in this document were tested against GPA using procedures described in the following example. In the reporting of the results, the “GPA & YFM Rating Table” was used (See Table Section).
Cabbage seedlings grown in 3-inch pots, with 2-3 small (3-5 cm) true leaves, were used as test substrate. The seedlings were infested with 20-50 GPA (wingless adult and nymph stages) one day prior to chemical application. Four pots with individual seedlings were used for each treatment. Test molecules (2 mg) were dissolved in 2 mL of acetone/methanol (1:1) solvent, forming stock solutions of 1000 ppm test molecule. The stock solutions were diluted 5× with 0.025% Tween 20 in water to obtain the solution at 200 ppm test molecule. A hand-held aspirator-type sprayer was used for spraying a solution to both sides of […] leaves until runoff. Reference plants (solvent check) were sprayed with the diluent only containing 20% by volume of acetone/methanol (1:1) solvent. Treated plants were held in a holding room for three days at approximately 25° C. and ambient relative humidity (RH) prior to grading. Evaluation was conducted by counting the number of live aphids per plant under a microscope. Percent control was measured using Abbott's correction formula (W. S. Abbott, “A Method of Computing the Effectiveness of an Insecticide” 3. Econ. Entomol. 18 (1925), pp. 265-267) as follows. Corrected % Control=100*(X−Y)/X where X=No. of live aphids on solvent check plants and Y=No. of live aphids on treated plants. The results are indicated in the table entitled “Table ABC: Biological Results” (See Table Section).

SMILES	YFM (Biological Results, rating) [1]	pest or weed control at 50 µg/cm2 [2] [%]	pest or weed control at 50 µg/cm2 [3] [%]	pest or weed control at 200 µg/mL [4] [%]
O=C(Nc1ccc(F)cc1)c1cccc(NC(=O)[C@H]2[C@H](c3cc(Cl)cc(Cl)c3)C2(Cl)Cl)c1 (relative stereo) [F2, trans-3-(2,2-Dichloro-3-(3,5-dichlorophenyl)cyclopropane-1-carboxamido)-N-(4-fluorophenyl)benzamide]	A (80-100)	50 to 100	50 to 100	0 to 80
Cc1ccccc1NC(=O)c1cc(NC(=O)[C@H]2[C@H](c3cc(Cl)cc(Cl)c3)C2(Cl)Cl)ccc1Cl (relative stereo) [F9, trans-2-Chloro-5-(2,2-dichloro-3-(3,5-dichlorophenyl)cyclopropane-1-carboxamido)-N-(o-tolyl)benzamide]	A (80-100)	50 to 100	50 to 100	80 to 100
Cc1ccc(NC(=O)[C@H]2[C@H](c3cc(Cl)cc(Cl)c3)C2(Cl)Cl)cc1C(=O)Nc1ccc(F)cc1 (relative stereo) [F10, trans-5-(2,2-Dichloro-3-(3,5-dichlorophenyl)cyclopropane-1-carboxamido)-N-(4-fluorophenyl)-2-methylbenzamide]	A (80-100)	50 to 100	50 to 100	0 to 80
O=C(Nc1ccc(F)cc1)c1cc(NC(=O)[C@H]2[C@H](c3cc(Cl)c(Cl)c(Cl)c3)C2(Cl)Cl)ccc1Cl (relative stereo) [F13, trans-2-Chloro-5-(2,2-dichloro-3-(3,4,5-trichlorophenyl)cyclopropane-1-carboxamido)-N-(4-fluorophenyl)benzamide]	A (80-100)	50 to 100	50 to 100	0 to 80
O=C(Nc1ccc(F)cc1)c1cc(NC(=O)[C@H]2[C@H](c3ccc(Cl)c(Cl)c3)C2(Cl)Cl)ccc1Cl (relative stereo) [F14, trans-2-Chloro-5-(2,2-dichloro-3-(3,4-dichlorophenyl)cyclopropane-1-carboxamido)-N-(4-fluorophenyl)benzamide]	A (80-100)	50 to 100	50 to 100	80 to 100
O=C(Nc1ccc(F)cc1)c1cccc(NC(=O)[C@H]2[C@H](c3cc(Cl)cc(Cl)c3)C2(Cl)Cl)c1F (relative stereo) [F15, trans-3-(2,2-Dichloro-3-(3,5-dichlorophenyl)cyclopropane-1-carboxamido)-2-fluoro-N-(4-fluorophenyl)benzamide]	A (80-100)	50 to 100	50 to 100	0 to 80
O=C(Nc1ccccc1)c1cc(NC(=O)[C@H]2[C@H](c3cc(Cl)cc(Cl)c3)C2(Cl)Cl)ccc1Cl (relative stereo) [F16, trans-2-Chloro-5-(2,2-Dichloro-3-(3,5-dichlorophenyl)cyclopropane-1-carboxamido)-N-phenylbenzamide]	A (80-100)	50 to 100	50 to 100	0 to 80
O=C(Nc1ccc(F)cc1F)c1cc(NC(=O)[C@H]2[C@H](c3cc(Cl)cc(Cl)c3)C2(Cl)Cl)ccc1Cl (relative stereo) [F18, trans-2-Chloro-5-(2,2-dichloro-3-(3,5-dichlorophenyl)cyclopropane-1-carboxamido)-N-(2,4-difluorophenyl)benzamide]	A (80-100)	50 to 100	50 to 100	80 to 100
CN(C(=O)c1cc(NC(=O)[C@H]2[C@H](c3cc(Cl)cc(Cl)c3)C2(Cl)Cl)ccc1Cl)c1ccc(F)cc1 (relative stereo) [F19, trans-2-Chloro-5-(2,2-dichloro-3-(3,5-dichlorophenyl)cyclopropane-1-carboxamido)-N-(4-fluorophenyl)-N-methylbenzamide]	A (80-100)	50 to 100	50 to 100	80 to 100
O=C(Nc1cccc(F)c1)c1cc(NC(=O)[C@H]2[C@H](c3cc(Cl)cc(Cl)c3)C2(Cl)Cl)ccc1Cl (relative stereo) [F20, trans-2-Chloro-5-(2,2-dichloro-3-(3,5-dichlorophenyl)cyclopropane-1-carboxamido)-N-(3-fluorophenyl)benzamide]	A (80-100)	50 to 100	50 to 100	0 to 80
N#Cc1cccc(NC(=O)c2cc(NC(=O)[C@H]3[C@H](c4cc(Cl)cc(Cl)c4)C3(Cl)Cl)ccc2Cl)c1 (relative stereo) [F21, trans-2-Chloro-N-(3-cyanophenyl)-5-(2,2-dichloro-3-(3,5-dichlorophenyl)cyclopropane-1-carboxamido)benzamide]	A (80-100)	50 to 100	50 to 100	0 to 80
O=C(Nc1cccc(F)c1F)c1cc(NC(=O)[C@H]2[C@H](c3cc(Cl)cc(Cl)c3)C2(Cl)Cl)ccc1Cl (relative stereo) [F22, trans-2-Chloro-5-(2,2-dichloro-3-(3,5-dichlorophenyl)cyclopropane-1-carboxamido)-N-(2,3-difluorophenyl)benzamide]	A (80-100)	50 to 100	50 to 100	80 to 100
O=C(Nc1ccc(F)c(F)c1)c1cc(NC(=O)[C@H]2[C@H](c3cc(Cl)cc(Cl)c3)C2(Cl)Cl)ccc1Cl (relative stereo) [F23, trans-2-Chloro-5-(2,2-dichloro-3-(3,5-dichlorophenyl)cyclopropane-1-carboxamido)-N-(3,4-difluorophenyl)benzamide]	A (80-100)	50 to 100	50 to 100	0 to 80
O=C(Nc1c(F)cc(F)cc1F)c1cc(NC(=O)[C@H]2[C@H](c3cc(Cl)cc(Cl)c3)C2(Cl)Cl)ccc1Cl (relative stereo) [F24, trans-2-Chloro-5-(2,2-dichloro-3-(3,5-dichlorophenyl)cyclopropane-1-carboxamido)-N-(2,4,6-trifluorophenyl)benzamide]	A (80-100)	50 to 100	50 to 100	80 to 100
O=C(Nc1c(F)cccc1F)c1cc(NC(=O)[C@H]2[C@H](c3cc(Cl)cc(Cl)c3)C2(Cl)Cl)ccc1Cl (relative stereo) [F25, trans-2-Chloro-5-(2,2-dichloro-3-(3,5-dichlorophenyl)cyclopropane-1-carboxamido)-N-(2,6-difluorophenyl)benzamide]	A (80-100)	50 to 100	50 to 100	80 to 100
